Measured values as given in BindingDB's records for doi:10.1016/j.bmcl.2005.07.039 (Universit&#233, 2005).

biological target: Sigma non-opioid intracellular receptor 1 (Cavia porcellus) (UniProt Q60492); experiment: Inhibitory activity against opioid receptor sigma 1 in guinea pig cerebral cortex using [3H](+)-pentazocine as radio ligand at pH 7.5 for 150 min at 22 degree C
Sequence (Q60492 whole entry, looked up): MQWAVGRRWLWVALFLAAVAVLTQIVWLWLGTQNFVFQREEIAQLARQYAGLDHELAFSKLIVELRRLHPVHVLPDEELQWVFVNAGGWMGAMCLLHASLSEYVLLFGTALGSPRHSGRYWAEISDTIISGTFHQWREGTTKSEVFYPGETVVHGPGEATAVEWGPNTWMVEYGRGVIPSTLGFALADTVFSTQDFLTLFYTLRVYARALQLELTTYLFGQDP

SMILES	IC50
O=c1n(CCCN2CCN(Cc3ccccc3)CC2)c(O)c2n1Cc1ccccc1C2 [(S)-2-[3-(4-Benzyl-piperazin-1-yl)-propyl]-10,10a-dihydro-5H-imidazo[1,5-b]isoquinoline-1,3-dione]	32 nM
CN(C)CCCN1CCN(CCCn2c(O)c3n(c2=O)Cc2ccccc2C3)CC1 [(S)-2-{3-[4-(3-Dimethylamino-propyl)-piperazin-1-yl]-propyl}-10,10a-dihydro-5H-imidazo[1,5-b]isoquinoline-1,3-dione]	> 100 nM
CN(CCCn1c(O)c2n(c1=O)Cc1ccccc1C2)c1ccccc1 [(S)-2-[3-(Methyl-phenyl-amino)-propyl]-10,10a-dihydro-5H-imidazo[1,5-b]isoquinoline-1,3-dione]	> 100 nM
CN(CCCCCn1c(O)c2n(c1=O)Cc1ccccc1C2)CCc1ccccc1 [(S)-2-[5-(Methyl-phenethyl-amino)-pentyl]-10,10a-dihydro-5H-imidazo[1,5-b]isoquinoline-1,3-dione]	11.7 nM
O=c1n(CCN2CCN(CCO)CC2)c(O)c2n1Cc1ccccc1C2 [(S)-2-{2-[4-(2-Hydroxy-ethyl)-piperazin-1-yl]-ethyl}-10,10a-dihydro-5H-imidazo[1,5-b]isoquinoline-1,3-dione]	> 100 nM
O=c1n(CCCNC2CCN(Cc3ccccc3)CC2)c(O)c2n1Cc1ccccc1C2 [(S)-2-[3-(1-Benzyl-piperidin-4-ylamino)-propyl]-10,10a-dihydro-5H-imidazo[1,5-b]isoquinoline-1,3-dione]	82.3 nM
CN(C)CCCN1CCN(CCn2c(O)c3n(c2=O)Cc2ccccc2C3)CC1 [(S)-2-{2-[4-(3-Dimethylamino-propyl)-piperazin-1-yl]-ethyl}-10,10a-dihydro-5H-imidazo[1,5-b]isoquinoline-1,3-dione]	> 1000 nM
O=c1n(CCCN2CCN(CCO)CC2)c(O)c2n1Cc1ccccc1C2 [(S)-2-{3-[4-(2-Hydroxy-ethyl)-piperazin-1-yl]-propyl}-10,10a-dihydro-5H-imidazo[1,5-b]isoquinoline-1,3-dione]	> 100 nM
CN(CCCc1ccccc1)CCn1c(O)c2n(c1=O)Cc1ccccc1C2 [(S)-2-{2-[Methyl-(3-phenyl-propyl)-amino]-ethyl}-10,10a-dihydro-5H-imidazo[1,5-b]isoquinoline-1,3-dione]	13.6 nM
CN1CCN(CCCn2c(O)c3n(c2=O)Cc2ccccc2C3)CC1 [(S)-2-[3-(4-Methyl-piperazin-1-yl)-propyl]-10,10a-dihydro-5H-imidazo[1,5-b]isoquinoline-1,3-dione]	> 100 nM
CN(CCc1ccccc1)CCn1c(O)c2n(c1=O)Cc1ccccc1C2 [(S)-2-[2-(Methyl-phenethyl-amino)-ethyl]-10,10a-dihydro-5H-imidazo[1,5-b]isoquinoline-1,3-dione]	12.6 nM
O=c1n(CCCN2CCN(Cc3ccc4c(c3)OCO4)CC2)c(O)c2n1Cc1ccccc1C2 [(S)-2-[3-(4-Benzo[1,3]dioxol-5-ylmethyl-piperazin-1-yl)-propyl]-10,10a-dihydro-5H-imidazo[1,5-b]isoquinoline-1,3-dione]	23.8 nM
CC(C)NC(=O)CN1CCN(CCn2c(O)c3n(c2=O)Cc2ccccc2C3)CC1 [2-{4-[2-((S)-1,3-Dioxo-1,5,10,10a-tetrahydro-imidazo[1,5-b]isoquinolin-2-yl)-ethyl]-piperazin-1-yl}-N-isopropyl-acetamide]	> 100 nM
CN1CCN(CCn2c(O)c3n(c2=O)Cc2ccccc2C3)CC1 [(S)-2-[2-(4-Methyl-piperazin-1-yl)-ethyl]-10,10a-dihydro-5H-imidazo[1,5-b]isoquinoline-1,3-dione]	> 100 nM

More lines, now with the values ahead:

IC50	SMILES
10.5 nM	O=c1n(CCCNCCCCc2ccccc2)c(O)c2n1Cc1ccccc1C2 [(S)-2-[3-(4-Phenyl-butylamino)-propyl]-10,10a-dihydro-5H-imidazo[1,5-b]isoquinoline-1,3-dione]
9.9 nM	CN(CCCCn1c(O)c2n(c1=O)Cc1ccccc1C2)CCc1ccccc1 [(S)-2-[4-(Methyl-phenethyl-amino)-butyl]-10,10a-dihydro-5H-imidazo[1,5-b]isoquinoline-1,3-dione]
9.6 nM	O=c1n(CCCNCc2ccccc2)c(O)c2n1Cc1ccccc1C2 [(S)-2-(3-Benzylamino-propyl)-10,10a-dihydro-5H-imidazo[1,5-b]isoquinoline-1,3-dione]
9.4 nM	CN(CCCCCCn1c(O)c2n(c1=O)Cc1ccccc1C2)Cc1ccccc1 [(S)-2-[6-(Benzyl-methyl-amino)-hexyl]-10,10a-dihydro-5H-imidazo[1,5-b]isoquinoline-1,3-dione]
5 nM	CN(CCCCCn1c(O)c2n(c1=O)Cc1ccccc1C2)Cc1ccccc1 [(S)-2-[5-(Benzyl-methyl-amino)-pentyl]-10,10a-dihydro-5H-imidazo[1,5-b]isoquinoline-1,3-dione]
4.5 nM	CN(CCn1c(O)c2n(c1=O)Cc1ccccc1C2)Cc1ccccc1 [(S)-2-[2-(Benzyl-methyl-amino)-ethyl]-10,10a-dihydro-5H-imidazo[1,5-b]isoquinoline-1,3-dione]
4.2 nM	CN(CCCCn1c(O)c2n(c1=O)Cc1ccccc1C2)Cc1ccccc1 [(S)-2-[4-(Benzyl-methyl-amino)-butyl]-10,10a-dihydro-5H-imidazo[1,5-b]isoquinoline-1,3-dione]
3.2 nM	CN(CCCCc1ccccc1)CCn1c(O)c2n(c1=O)Cc1ccccc1C2 [(S)-2-{2-[Methyl-(4-phenyl-butyl)-amino]-ethyl}-10,10a-dihydro-5H-imidazo[1,5-b]isoquinoline-1,3-dione]
2.9 nM	CN(CCCCCc1ccccc1)CCn1c(O)c2n(c1=O)Cc1ccccc1C2 [(S)-2-{2-[Methyl-(5-phenyl-pentyl)-amino]-ethyl}-10,10a-dihydro-5H-imidazo[1,5-b]isoquinoline-1,3-dione]
2.1 nM	CN(CCCn1c(O)c2n(c1=O)Cc1ccccc1C2)CCc1ccccc1 [(S)-2-[3-(Methyl-phenethyl-amino)-propyl]-10,10a-dihydro-5H-imidazo[1,5-b]isoquinoline-1,3-dione]

biological target: Sigma non-opioid intracellular receptor 1 (Cavia porcellus) (UniProt Q60492); experiment: Inhibitory activity against Opioid receptor sigma 1 in guinea pig cerebral cortex using [3H](+)-pentazocine as radio ligand at pH 7.5 for 150 min at 22 C

IC50	SMILES
29.5 nM	CN(CCCCCCn1c(O)c2n(c1=O)Cc1ccccc1C2)CCc1ccccc1 [(S)-2-[6-(Methyl-phenethyl-amino)-hexyl]-10,10a-dihydro-5H-imidazo[1,5-b]isoquinoline-1,3-dione]
